# B1: 356delA BNIP3: truncated BNIP3, frame shift in the CD domain by deletion of A at nucleotide 356 (SEQ ID NO:3, protein SEQ ID NO:4) (protein, listed as Homo sapiens)
# chain: MSQNGAPGMQEESLQGSWVELHFSNNGNGGSVPASVSIYNGDMEKILLDAQHESGRSSSKSSHCDSPPRSQTPQDTNRASETDTHSIGEKNSSQSEEDDIERRKEVESILKKNSDWIWVGQVGRKIFPPRSSSLNTRSARPPSA
# Columns and labels:
# Format in all cases: cell-based, human
# BNIP3 = assay: Antisense experiment: BNIP3 expression in U87 cells under hypoxia (Western blot); conditions: hypoxia 72 hrs
# Experimental: U251 cells were lysed for total protein or nuclear proteins as previously published (5). The lysates ([…]) were separated by SDS-PAGE and transferred to nitrocellulose membranes. Membranes were blocked in 5% skim milk and western blotted with monoclonal antibodies against BNIP3 (1:1000) (5), pro-caspase 8 antibodies (1:1000, Upstate Biotech.), HDAC1 antibodies (1:1000, Upstate Biotech),) or β-actin (1:50, Sigma). The western blots were visualized with chemiluminescence (NEN-Dupont).
# (§1) Antisense oligonucleotide (5′-[…]-3′ (SEQ ID NO:13)) (Sigma Genesys, Oakville, ON) and sense oligonucleotide (5′-[…]-3′ (SEQ ID NO:14)) were complimentary to bases −1 to +19 of the human Bnip3 gene. Random sequence oligonucleotide (5′-GCAGTCAGCGACGTCGMGC-3′ (SEQ ID NO:15)) contained the same bases in a scrambled sequence. Oligonucleotides were phosphorothioate-modified to prevent degradation. Oligonucleotides were diluted in Opti-MEM (Gibco BRL), mixed with oligofectamine (Invitrogen) and incubated with U87 cells for 4 hours then hypoxic media was added and cells were further incubated under hypoxia for 72 hours. Cell death was determined via acridine orange staining or cells were lysed and protein extracts were analyzed for BNIP3 expression as described above.
# U87 cells = assay: Antisense experiment: hypoxia-induced cell death in U87 cells (acridine orange staining); conditions: hypoxia 72 hours
# Experimental: U251 and U87 cells were plated on 100 mm plates and grown to approximately 80% confluence, then incubated in hypoxic conditions for a time course of 0, 24, 48, 72 and 96 hours. Following incubation under hypoxia, the cells were trypsinized from the plates and centrifuged to collect a cell pellet. Cells were resuspended in 100 μl of media and 4 μl of acridine orange (100 μg/ml) and ethidium bromide (100 μg/ml) were added. A 10 μl aliquot was removed, placed on a microscope slide and a coverslip was applied. Using a fluorescein filter, the percentage of dead cells was determined by counting the number of DNA condensation nuclei. At least 200 cells were counted per sample as previously described (5).
# as §1, with “Oligonucleotides were diluted in Opti-MEM (Gibco BRL), mixed with oligofectamine (Invitrogen) and incubated with U87 cells for 4 hours then hypoxic media was added and cells were further incubated under hypoxia for 72 hours.” left out
# [1] = tested on: glioblastoma cell lines U87 and U251; assay: Cell death after transfection of glioblastoma cell lines (chromatin condensation); conditions: U87 and U251 cells transfected, normoxia
# Experimental: (§2) Human glioblastoma cell lines U251 and U87 (obtained from Dr. V. W. Yong, University of Calgary and Dr. C. Hao, University of Alberta, respectively) were cultured in Dulbecco's modified essential medium (DMEM), supplemented with 10% fetal bovine serum, 2 mM L-glutamine, 1 mM MEM sodium pyruvate, 0.3% glucose and 100 units/mI penicillin/streptomycin. The cell lines were grown in a humidified incubator in the presence of 5% CO2 at 37° C. Cells were maintained under hypoxic conditions (less than 1% oxygen) at 37° C. within a hypoxic chamber (Forma Scientific) filled with 5% CO2 balanced with N2. Transfection experiments were carried out with the U87 and U251 cell lines. The cells were plated 48 hours prior to transfection to achieve approximately 40% confluence. The U87 cell line was transfected using Geneporter™ transfection reagent (GTS) and the U251 cell line using Effectene™ transfection reagent (Qiagen) as per the manufacturer's instructions.
# After transfection of U87 and U251 cell lines with 2 μg of pCDNA3, pCDNA3-BNIP3, pCDNA3-BNIP3ΔTM, or pCDNA3-356delA BNIP3, the cells were incubated for 24 and 48 hours, then trypsinized and centrifuged and then resuspended in 2 ml of media. A 200 μl aliquot was placed in a ThermoShandon cytospin at 1000 RPM for 5 minutes with medium-low acceleration. The slides obtained from the cytospin were immediately fixed with 3.7% formaldelyde in 1×PBS at RT for one hour. Following three washes with 1' PBS (0.1% NP40), slides were incubated with primary BNIP3 antibody (1:700 dilution in […], 1×PBS, 0.1% NP40) for 1 hour at RT. The slides were then washed three times in PBS (0.1% NP40) and incubated with goat anti-rabbit fluorescein isothiocyanate (FITC)-conjugated secondary antibody (Sigma) for 1 hour. […] 200 or more cells were counted per sample to assess DNA condensation. Fluorescence was visualized and captured using an Olympus BX51 fluorescent microscope with a Photometrics Cool Snap CF camera and an Olympus IX70 inverted confocal laser microscope using Fluoview 2.0 software.
# U251 cells [2] = assay: Determination of mitochondrial membrane potential (TMRM staining) in transfected U251 cells; conditions: U251 cells co-transfected with GFP
# Experimental: U251 cells were grown in chamber slides and were co-transfected with pEGFP N1 (Clontech) and pCDNA3, pCDNA3-BNIP3, pCDNA3-BNIP3ΔTM, and pCDNA3-356delA BNIP3 using Geneporter™ transfection reagent (GTS) as per the manufacturer's instructions. After 16 h of incubation, the slides were washed twice with 1×Hepes-buffered saline solution (HBSS) and tetramethylrohdamine (TMRM; Molecular Probes) was added to the slides at […] final concentration and incubated in the dark at RT for 10 min. The slides were then viewed on an Olympus IX70 inverted confocal laser microscope using Fluoview 2.0 software.
# U251 cells [3] = assay: Hypoxia-induced cell death in transfected U251 cells (β-galactosidase viability assay)
# Experimental: as §2
# U87 and U251 cells were co-transfected in 100 mm culture plates with 2 μg of pcDNA3, pcDNA3-BNIP3, pcDNA3-BNIP3ΔTM, pcDNA3-356delA BNIP3 plasmid DNA and 0.5 μg of β-galactosidase reporter plasmid DNA. […] The percentage of dead cells was calculated by assessing the number of rounded, condensed, blue-staining cells in the total population of flat, blue-staining cells. At least 200 cells were counted for each experiment.
Molecule,BNIP3 expression (BNIP3),hypoxia-induced cell death (U87 cells),induction of cell death [1],"TMRM staining (mitochondrial membrane potential, Δψm) (U251 cells [2])","cell death (U251 cells [3]; U251 cells transfected with cDNA, hypoxic conditions 72 hours, vector alone 40%, normoxia 10%) [%]","reduction of cell death versus vector alone (U251 cells [3]; U251 cells, hypoxic conditions) [%]"
"5′-GCGCTCCGTTCTGCGACATG-3′ (SEQ ID NO:13) (listed as DNA, chemistry not given here) [antisense oligonucleotides against BNIP3, antisense oligonucleotide to bases −1 to +19 of the human Bnip3 gene]",effectively blocks BNIP3 expression,inhibited hypoxia-induced cell death,–,–,–,–
"235—236insA BNIP3: truncated BNIP3, frame shift in the PEST domain by insertion of A at nucleotide 236 (SEQ ID NO:5, protein SEQ ID NO:6)",–,–,failed to induce cell death,–,–,–
"wt BNIP3: wild-type Bcl-2 Nineteen Kilodalton Interacting Protein 3 (SEQ ID NO:2), expressed from transfected cDNA",–,–,inducing cell death,TMRM staining decreased,–,–
B1,–,–,fails to induce cell death,failed to change TMRM fluorescence,20,50

# From US7393637B2, “Methods for detecting cancer and monitoring cancer progression” (University of Manitoba, priority 2003, dated 2008)
